According to publication PMC10944477 (Communications Biology, 2024):
Converted amounts (≈) assume the structure as drawn.

Assays:
Tet(56-2) = target: T1, Tet(56-2) (Legionella clemsonensis, UniProt A0A222NYA8); test: biochemical
T1 construct: gene clem_00015

Tet(56-3) = target: T2, Tet(56-3) (Legionella massiliensis, UniProt A0A078L5T0); test: biochemical
T2 construct: gene BN59_03621

[1] = system: C[C@H]1c2cccc(O)c2C(=O)C2=C(O)[C@]3(O)C(=O)C(C(N)=O)=C(O)[C@@H](N(C)C)[C@@H]3[C@@H](O)[C@@H]21; test: purified protein; settings: pH 8.5
E. coli + pZE24 TetX7_WT = test: microbe, parasite or virus in culture; settings: Escherichia coli, 20 h
Description: (§1) For high expression from the Plac/ara-1 promoter, 1 mM IPTG fully relieves repression by LacI[93]. Inoculated panels were incubated at 37 °C for 20 h with shaking, then scored by eye and using a plate reader.

E. coli + pZE24 Tet50_WT = test: microbe, parasite or virus in culture; settings: Escherichia coli, 20 h
Description: as §1

Tet(X7) = type: biochemical, uncultured bacterium; settings: […] NADPH, […] MgCl2, 100 mM TAPS pH 8.5, 0.4 µM enzyme; read-out: KM (apparent)
Tet(56-6) = settings: read-out: KM (apparent); […] NADPH, […] MgCl2, 100 mM TAPS pH 8.5, 0.4 µM enzyme
Tet(56-4) = settings: read-out: KM (apparent); […] NADPH, […] MgCl2, 100 mM TAPS pH 8.5, 0.4 µM enzyme
Tet(X13.2) = settings: read-out: KM (apparent); […] NADPH, […] MgCl2, 100 mM TAPS pH 8.5, 0.4 µM enzyme
Tet(56-5) = settings: read-out: KM (apparent)
Tet(58) = settings: read-out: KM (apparent); […] NADPH, […] MgCl2, 100 mM TAPS pH 8.5, 0.4 µM enzyme
Tet(56-7) = settings: read-out: KM (apparent)

T1 sequence (A0A222NYA8 1-387 limits assumed): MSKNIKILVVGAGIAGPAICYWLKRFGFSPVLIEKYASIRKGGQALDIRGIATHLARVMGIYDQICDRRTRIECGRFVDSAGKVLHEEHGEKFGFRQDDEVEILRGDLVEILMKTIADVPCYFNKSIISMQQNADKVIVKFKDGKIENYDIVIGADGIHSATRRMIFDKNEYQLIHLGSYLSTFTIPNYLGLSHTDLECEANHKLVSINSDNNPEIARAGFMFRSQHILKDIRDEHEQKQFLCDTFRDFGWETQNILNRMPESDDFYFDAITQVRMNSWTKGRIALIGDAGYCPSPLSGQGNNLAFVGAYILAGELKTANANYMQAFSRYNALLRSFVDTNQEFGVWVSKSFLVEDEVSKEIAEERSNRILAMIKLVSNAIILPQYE
T2 sequence (A0A078L5T0 1-387 limits assumed): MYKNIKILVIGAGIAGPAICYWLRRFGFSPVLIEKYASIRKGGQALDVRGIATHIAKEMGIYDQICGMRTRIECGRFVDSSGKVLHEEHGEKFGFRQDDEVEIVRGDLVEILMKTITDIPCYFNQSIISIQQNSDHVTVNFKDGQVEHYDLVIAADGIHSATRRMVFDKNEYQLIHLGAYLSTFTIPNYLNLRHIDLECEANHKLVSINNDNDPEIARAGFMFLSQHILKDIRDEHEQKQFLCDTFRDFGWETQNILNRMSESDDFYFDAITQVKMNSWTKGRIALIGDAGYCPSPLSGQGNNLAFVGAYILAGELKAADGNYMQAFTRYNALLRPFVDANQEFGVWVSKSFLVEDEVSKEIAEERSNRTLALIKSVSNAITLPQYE

Molecule | Km [1] [µM] | MIC (E. coli + pZE24 TetX7_WT) [µg/mL] | MIC (E. coli + pZE24 Tet50_WT) [µg/mL] | Km (Tet(X7)) [µM] | other results
Cc1c2c(c(O)c3c(O)cccc13)C(=O)[C@]1(O)C(=O)C(C(N)=O)=C(O)[C@@H](N(C)C)[C@@H]1C2 [ATC, anhydrotetracycline] |  |  |  |  | IC50 (Tet(56-2)): 6.4 ± 0.9 µM; IC50 (Tet(56-3)): 30 ± 6 µM
Tet(56-3) (Legionella massiliensis) | 14.9 ± 1.4 |  |  |  | 
Tet(56-2) (Legionella clemsonensis) | 150 ± 42 |  |  |  | 
CN(C)c1cc(NC(=O)CNC(C)(C)C)c(O)c2c1C[C@H]1C[C@H]3[C@H](N(C)C)C(O)=C(C(N)=O)C(=O)[C@@]3(O)C(O)=C1C2=O [tigecycline] |  | 2 (≈ 3.41 µM) | 0.5 (≈ 0.854 µM) |  | 
C[C@H]1c2cccc(O)c2C(=O)C2=C(O)[C@]3(O)C(=O)C(C(N)=O)=C(O)[C@@H](N(C)C)[C@@H]3[C@@H](O)[C@@H]21 [DOX, doxycycline] |  | 16 (≈ 36 µM) | 2 (≈ 4.5 µM) | 5.62 ± 0.629 | 
CN(C)[C@@H]1C(=O)C(C(N)=O)=C(O)[C@@]2(O)C(=O)C3=C(O)c4c(O)cccc4[C@@](C)(O)[C@H]3C[C@@H]12 [TET, tetracycline] |  | 32 (≈ 72 µM) | 32 (≈ 72 µM) | 2.97 ± 0.68 | Km (Tet(56-6)): 0.441 ± 0.218 µM; Km (Tet(56-4)): 1.18 ± 0.562 µM; Km (Tet(X13.2)): 23.4 ± 9.62 µM; Km (Tet(56-5)): 0.508 ± 0.181 µM; Km (Tet(58)): 0.123 ± 0.067 µM; Km (Tet(56-7)): 2.6 ± 0.301 µM
